Experimental data: patent publication US10598672B2, “Methods and compositions for diagnosing and treating loss and/or distortion of taste or smell” (Cyrano Therapeutics, Inc., priority 2014, dated 2020)
Marks after values point to notes of the source that are not given here.

Test system: patients with hyposmia
Experiment: Olfactometry: DT, RT, ME and H for pyridine, nitrobenzene, thiophene, amyl acetate
Assay type: in vivo, human
Details: for AMYL ACETATE DT, detection threshold / AMYL ACETATE H, hedonic value / AMYL ACETATE ME, magnitude estimation / AMYL ACETATE RT, recognition threshold / NI[…], detection threshold / NI[…], hedonic value / NI[…], magnitude estimation / NI[…], recognition threshold / PYRIDINE DT, detection threshold / PYRIDINE H, hedonic value / PYRIDINE ME, magnitude estimation / PYRIDINE RT, recognition threshold / THIOPHENE DT, detection threshold / THIOPHENE H, hedonic value / THIOPHENE ME, magnitude estimation / THIOPHENE RT, recognition threshold: hyposmic, oral theophylline, Mean ± SEM
[1] = ALL PATIENTS (31) treated with oral theophylline
[2] = ALLERGIC RHINITIS (11) treated with oral theophylline
[3] = CONGENITAL (9) treated with oral theophylline
[4] = PIHH (10) treated with oral theophylline
[5] = POST GENERAL ANESTHESIA (1) treated with oral theophylline
[6] = after intranasal treatment vs before treatment or after oral treatment
[7] = after oral treatment vs before treatment, 10 patients
[8] = hyposmic patients TREATED (31) with oral theophylline
[9] = oral theophylline dose 200 mg (6 patients)
[10] = oral theophylline dose 400 mg (6 patients)
[11] = oral theophylline dose 600 mg (14 patients)
[12] = oral theophylline dose 800 mg (5 patients)

SMILES: Cn1c(=O)c2[nH]cnc2n(C)c1=O [theophylline]
- SMELL IMPROVEMENT Patient (%) [1]: 61%
- SMELL IMPROVEMENT Patient Number [1]: 19
- SMELL IMPROVEMENT Patient (%) [2]: 45%
- SMELL IMPROVEMENT Patient Number [2]: 5
- SMELL IMPROVEMENT Patient (%) [3]: 56%
- SMELL IMPROVEMENT Patient Number [3]: 5
- SMELL IMPROVEMENT Patient (%) [4]: 80%
- SMELL IMPROVEMENT Patient Number [4]: 8
- SMELL IMPROVEMENT Patient (%) [5]: 100%
- SMELL IMPROVEMENT Patient Number [5]: 1
- AMYL ACETATE DT, detection threshold (TREATED MEN (19)): 4.7 ± 0.9^b BU
- AMYL ACETATE H, hedonic value (TREATED MEN (19)): 3 ± 3%
- AMYL ACETATE ME, magnitude estimation (TREATED MEN (19)): 17 ± 5%
- AMYL ACETATE RT, recognition threshold (TREATED MEN (19)): 5.3 ± 0.9^a BU
- NI[…], detection threshold (TREATED MEN (19)): 4.8 ± 1.1^b BU
- NI[…], hedonic value (TREATED MEN (19)): 6 ± 5%
- NI[…], magnitude estimation (TREATED MEN (19)): 19 ± 5%
- NI[…], recognition threshold (TREATED MEN (19)): 5.2 ± 1.2^b BU
- PYRIDINE DT, detection threshold (TREATED MEN (19)): 4.8 ± 0.9^a BU
- PYRIDINE H, hedonic value (TREATED MEN (19)): −30 ± 7%
- PYRIDINE ME, magnitude estimation (TREATED MEN (19)): 36 ± 7%
- PYRIDINE RT, recognition threshold (TREATED MEN (19)): 5.6 ± 1.0^c BU
- THIOPHENE DT, detection threshold (TREATED MEN (19)): 5.6 ± 0.9^b BU
- THIOPHENE H, hedonic value (TREATED MEN (19)): −7 ± 3%
- THIOPHENE ME, magnitude estimation (TREATED MEN (19)): 15 ± 5%
- THIOPHENE RT, recognition threshold (TREATED MEN (19)): 7.6 ± 1.0 BU
- AMYL ACETATE DT, detection threshold (TREATED WOMEN (12)): 7.4 ± 1.1 BU
- AMYL ACETATE H, hedonic value (TREATED WOMEN (12)): 2 ± 6%
- AMYL ACETATE ME, magnitude estimation (TREATED WOMEN (12)): 22 ± 7%
- AMYL ACETATE RT, recognition threshold (TREATED WOMEN (12)): 8.7 ± 1.0 BU
- NI[…], detection threshold (TREATED WOMEN (12)): 6.8 ± 1.4 BU
- NI[…], hedonic value (TREATED WOMEN (12)): 8 ± 7%
- NI[…], magnitude estimation (TREATED WOMEN (12)): 25 ± 8%
- NI[…], recognition threshold (TREATED WOMEN (12)): 7.3 ± 1.1 BU
- PYRIDINE DT, detection threshold (TREATED WOMEN (12)): 7.1 ± 0.9 BU
- PYRIDINE H, hedonic value (TREATED WOMEN (12)): −38 ± 8%
- PYRIDINE ME, magnitude estimation (TREATED WOMEN (12)): 42 ± 9%
- PYRIDINE RT, recognition threshold (TREATED WOMEN (12)): 8.0 ± 1.0 BU
- THIOPHENE DT, detection threshold (TREATED WOMEN (12)): 7.1 ± 1.2 BU
- THIOPHENE H, hedonic value (TREATED WOMEN (12)): −19 ± 6%
- THIOPHENE ME, magnitude estimation (TREATED WOMEN (12)): 30 ± 7%
- THIOPHENE RT, recognition threshold (TREATED WOMEN (12)): 8.1 ± 1.3 BU
- DTs and RTs for each odor [6]: lower (more sensitive)
- Hedonic responses to nitrobenzene [6]: more positive (more pleasant)
- Hedonic responses to thiophene [6]: more negative (more unpleasant)
- Magnitude estimations for each odor [6]: higher (more intense)
- DTs and RTs for all odorants [7]: decreased (more sensitive)
- HRs for all odorants [7]: increased
- MEs for all odorants [7]: increased (more sensitive)
- AMYL ACETATE DT [8]: 1.2 ± 0.6^d,a2 BU
- AMYL ACETATE H [8]: 3 ± 4%
- AMYL ACETATE ME [8]: 17 ± 5^a2%
- AMYL ACETATE RT [8]: 5.5 ± 0.8^d BU
- PYRIDINE DT [8]: 5.7 ± 0.7^c,b2 BU
- PYRIDINE H [8]: −32 ± 6%
- PYRIDINE ME [8]: 40 ± 6%
- PYRIDINE RT [8]: 6.7 ± 0.8^d BU
- THEOPHENE DT [8]: 5.1 ± 0.7^e,a2 BU
- THEOPHENE H [8]: −9 ± 4^a2%
- THEOPHENE ME [8]: 18 ± 4^a2%
- THEOPHENE RT [8]: 5.5 ± 0.8^e,e2 BU
- patients who exhibited improved smell function (hyposmic patients after oral treatment (text of Example 9)): 60%
- AMYL ACETATE DT [9]: 8.2 ± 2.1 BU
- AMYL ACETATE H [9]: 8 ± 8%
- AMYL ACETATE ME [9]: 12 ± 11%
- AMYL ACETATE RT [9]: 8.6 ± 1.9 BU
- PYRIDINE DT [9]: 8.4 ± 0.8 BU
- PYRIDINE H [9]: −34 ± 13%
- PYRIDINE ME [9]: 35 ± 15%
- PYRIDINE RT [9]: 9.8 ± 0.9 BU
- THIOPHENE DT [9]: 8.2 ± 1.8 BU
- THIOPHENE H [9]: −14 ± 11%
- THIOPHENE RT [9]: 8.8 ± 2.0 BU
- Thiophene magnitude estimation (%) [9]: 10 ± 15 BU
- AMYL ACETATE DT [10]: 6.0 ± 1.0 BU
- AMYL ACETATE H [10]: 0 ± 0%
- AMYL ACETATE ME [10]: 17 ± 10%
- AMYL ACETATE RT [10]: 6.2 ± 1.7 BU
- PYRIDINE DT [10]: 7.0 ± 1.8 BU
- PYRIDINE H [10]: −35 ± 15%
- PYRIDINE ME [10]: 43 ± 12%
- PYRIDINE RT [10]: 7.8 ± 2.2 BU
- THIOPHENE DT [10]: 6.2 ± 1.9 BU
- THIOPHENE H [10]: −6 ± 1%
- THIOPHENE RT [10]: 9.2 ± 2.4 BU
- Thiophene magnitude estimation (%) [10]: 0 ± 0 BU
- AMYL ACETATE DT [11]: 5.0 ± 1.2^c BU
- AMYL ACETATE H [11]: 14 ± 5%
- AMYL ACETATE ME [11]: 24 ± 8%
- AMYL ACETATE RT [11]: 5.4 ± 1.2^b BU
- PYRIDINE DT [11]: 5.2 ± 0.9^d BU
- PYRIDINE H [11]: −10 ± 8%
- PYRIDINE ME [11]: 50 ± 8%
- PYRIDINE RT [11]: 5.8 ± 1.1^d BU
- THIOPHENE DT [11]: 6.2 ± 1.1 BU
- THIOPHENE H [11]: −19 ± 7%
- THIOPHENE RT [11]: 7.9 ± 1.0 BU
- Thiophene magnitude estimation (%) [11]: 26 ± 7 BU
- AMYL ACETATE DT [12]: 4.0 ± 1.3^d BU
- AMYL ACETATE H [12]: 15 ± 12%
- AMYL ACETATE ME [12]: 17 ± 11%
- AMYL ACETATE RT [12]: 4.5 ± 1.0^b BU
- PYRIDINE DT [12]: 2.8 ± 1.2^a BU
- PYRIDINE H [12]: −20 ± 13%
- PYRIDINE ME [12]: 36 ± 15%
- PYRIDINE RT [12]: 4.0 ± 1.8^d BU
- THIOPHENE DT [12]: 4.0 ± 1.5^d BU
- THIOPHENE H [12]: −15 ± 16%
- THIOPHENE RT [12]: 5.2 ± 1.4 BU
- Thiophene magnitude estimation (%) [12]: 29 ± 16 BU
